Experimental data reported in patent EP4603105A1, “PHARMACEUTICAL COMPOSITION CONTAINING CYCLIC COMPOUND HAVING SELECTIVE KRAS INHIBITORY EFFECT AGAINST HRAS AND NRAS” (CHUGAI SEIYAKU KABUSHIKI KAISHA, priority 2022, dated 2024).
*1 amine or outer side, *2 acyl side, *3 side chain or, on linkers, in order; H or OH if unused. Where a SMILES comes first, the peptide text is derived from it. Bridges are numbered along the chain shown (N, C = ends). [ ]: non-standard residue; d: D form. The star is where a group is joined. ξ: configuration not given here. hPhe(3-Cl-4-CF3) = N[C@@H](CCc1ccc(C(F)(F)F)c(Cl)c1)C(=O)O; X31 = C=CCN([C@@H](Cc1ccccc1)C(=O)[*:2])[*:1]; NMeGly(cPent) = CN[C@H](C(=O)O)C1CCCC1; NMeNle(5-ene) = C=CCC[C@H](NC)C(=O)O; dIle(3ξ) = CCC(C)[C@@H](N)C(=O)O; NMeD = CN[C@@H](CC(=O)O)C(=O)O; NMeL = CN[C@@H](CC(C)C)C(=O)O; Morpholide = C1CN(*)CCO1; Ac5c = NC1(C(=O)O)CCCC1; Sar = CNCC(=O)O

How the values were obtained:
[1] = molecular target: GDP-bound NRAS wild-type protein (Homo sapiens, UniProt P01111); assay: Binding to NRAS by surface plasmon resonance (SPR), KD and KD ratio to KRAS; details: ratio of the KD value with respect to GDP-bound NRAS wild-type protein to the KD value with respect to KRAS
In short: (§1)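 Affinity is measured by surface plasmon resonance at 30°C against captured, GDP-loaded RAS carrying a biotinylated Avi tag. Compounds are titrated by single-cycle kinetics, and KD comes from a 1:1 fit.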

[2] = tested on: human lung cancer strain NCI-H441; type: cell-based
In short: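 Readout: […] after the ATP-based reagent. Compound: serial dilutions in dimethyl sulfoxide.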

[3] = molecular target: HRAS wild-type protein (Homo sapiens, UniProt P01112); assay: Binding to HRAS by surface plasmon resonance (SPR), KD and KD ratio to KRAS; details: ratio of the KD value with respect to HRAS wild-type protein to the KD value with respect to KRAS
In short: as §1

Chain of HRAS wild-type protein (P01112 whole entry): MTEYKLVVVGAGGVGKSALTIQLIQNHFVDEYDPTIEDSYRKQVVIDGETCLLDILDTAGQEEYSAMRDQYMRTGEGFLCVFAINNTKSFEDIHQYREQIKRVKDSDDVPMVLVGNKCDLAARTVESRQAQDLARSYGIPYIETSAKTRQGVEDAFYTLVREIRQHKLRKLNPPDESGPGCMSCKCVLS
Chain of GDP-bound NRAS wild-type protein (P01111 whole entry): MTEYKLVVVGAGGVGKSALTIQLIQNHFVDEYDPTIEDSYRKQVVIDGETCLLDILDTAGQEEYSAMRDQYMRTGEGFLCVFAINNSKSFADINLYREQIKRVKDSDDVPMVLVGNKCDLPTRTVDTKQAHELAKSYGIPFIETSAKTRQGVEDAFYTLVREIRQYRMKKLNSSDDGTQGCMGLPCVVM

Structure (SMILES) | NRAS /KRAS [1] | IC50 [2] [nM] | HRAS /KRAS [3]
CCC(CC)[C@@H]1NC(=O)[C@H](CC(C)C)N(C)C(=O)C[C@@H](C(=O)N2CCOCC2)N(C)C(=O)[C@H](C2CCCC2)N(C)C(=O)C2(CCCC2)NC(=O)[C@@H]2CCCN2C(=O)[C@H](CCc2cc(F)c(C(F)(F)F)c(F)c2)NC(=O)CN(C)C(=O)[C@H](Cc2ccc(C(F)(F)F)cc2)N2CCCC[C@@H](C2=O)N(C)C(=O)CN(C)C1=O [PP0597] | B (a compound having 3 or more and less than 10 is denoted as B) | 18.2 | B (a compound having 3 or more and less than 10 is denoted as B)
C=CCC[C@H]1C(=O)N(CC=C)[C@@H](Cc2ccccc2)C(=O)N(C)CC(=O)N[C@@H](CCc2ccc(C(F)(F)F)c(Cl)c2)C(=O)N2CCC[C@H]2C(=O)NC2(CCCC2)C(=O)N(C)[C@@H](C2CCCC2)C(=O)N(C)[C@H](C(=O)N2CCOCC2)CC(=O)N(C)[C@@H](CC(C)C)C(=O)N[C@H](C(C)CC)C(=O)N(C)CC(=O)N1C (stereo partly drawn) [PP0599] ([NMeL][dIle(3ξ)][Sar][NMeNle(5-ene)][X31][Sar][hPhe(3-Cl-4-CF3)]P[Ac5c][NMeGly(cPent)][NMeD]-Morpholide; lactam N-11) | C (A compound having a KD ratio of 0.1 or more and less than 3 is denoted as C) | 2800 | B (a compound having 3 or more and less than 10 is denoted as B)
CC[C@H](C)[C@@H]1NC(=O)[C@H](CC(C)C)N(C)C(=O)C[C@@H](C(=O)N2CCOCC2)N(C)C(=O)[C@H](C2CCCC2)N(C)C(=O)C2(CCCC2)NC(=O)[C@@H]2CCCN2C(=O)[C@H](CCc2ccc(C(F)(F)F)c(Cl)c2)NC(=O)CN(C)C(=O)[C@H](Cc2ccc(Cl)cc2)N2C/C=C\CC[C@@H](C2=O)N(C)C(=O)CN(C)C1=O [PP0608] | C (A compound having a KD ratio of 0.1 or more and less than 3 is denoted as C) | 252 | B (a compound having 3 or more and less than 10 is denoted as B)
CC[C@H](C)[C@@H]1NC(=O)[C@H](CC(C)C)N(C)C(=O)C[C@@H](C(=O)N2CCOCC2)N(C)C(=O)[C@H](C2CCCC2)N(C)C(=O)C2(CCCC2)NC(=O)[C@@H]2CCCN2C(=O)[C@H](CCc2ccc(C(F)(F)F)c(Cl)c2)NC(=O)CN(C)C(=O)[C@H](Cc2ccc(OC(F)(F)F)cc2)N2C/C=C\CC[C@@H](C2=O)N(C)C(=O)CN(C)C1=O [PP0610] | B (a compound having 3 or more and less than 10 is denoted as B) | 689 | B (a compound having 3 or more and less than 10 is denoted as B)
CC[C@H](C)[C@@H]1NC(=O)[C@H](CC(C)C)N(C)C(=O)C[C@@H](C(=O)N2CCOCC2)N(C)C(=O)[C@H](C2CCCC2)N(C)C(=O)C2(CCCC2)NC(=O)[C@@H]2CCCN2C(=O)[C@H](CCc2ccc(C(F)(F)F)c(Cl)c2)NC(=O)CN(C)C(=O)[C@H](Cc2ccc(F)cc2)N2CCCCC[C@@H](C2=O)N(C)C(=O)CN(C)C1=O [PP0612] | B (a compound having 3 or more and less than 10 is denoted as B) | 43.3 | B (a compound having 3 or more and less than 10 is denoted as B)
CC[C@H](C)[C@@H]1NC(=O)[C@H](CC(C)C)N(C)C(=O)C[C@@H](C(=O)N2CCOCC2)N(C)C(=O)[C@H](C2CCCC2)N(C)C(=O)C2(CCCC2)NC(=O)[C@@H]2CCCN2C(=O)[C@H](CCc2ccc(C(F)(F)F)c(Cl)c2)NC(=O)CN(C)C(=O)[C@H](Cc2ccc(Cl)cc2)N2CCCCC[C@@H](C2=O)N(C)C(=O)CN(C)C1=O [PP0613] | B (a compound having 3 or more and less than 10 is denoted as B) | 42.4 | B (a compound having 3 or more and less than 10 is denoted as B)
CC[C@H](C)[C@@H]1NC(=O)[C@H](CC(C)C)N(C)C(=O)C[C@@H](C(=O)N2CCOCC2)N(C)C(=O)[C@H](C2CCCC2)N(C)C(=O)C2(CCCC2)NC(=O)[C@@H]2CCCN2C(=O)[C@H](CCc2ccc(C(F)(F)F)c(Cl)c2)NC(=O)CN(C)C(=O)[C@H](Cc2ccc(OC)cc2)N2CCCCC[C@@H](C2=O)N(C)C(=O)CN(C)C1=O [PP0614] | B (a compound having 3 or more and less than 10 is denoted as B) | 110 | B (a compound having 3 or more and less than 10 is denoted as B)
CC[C@H](C)[C@@H]1NC(=O)[C@H](CC(C)C)N(C)C(=O)C[C@@H](C(=O)N2CCOCC2)N(C)C(=O)[C@H](C2CCCC2)N(C)C(=O)C2(CCCC2)NC(=O)[C@@H]2CCCN2C(=O)[C@H](CCc2ccc(C(F)(F)F)c(Cl)c2)NC(=O)CN(C)C(=O)[C@H](Cc2ccc(OC(F)(F)F)cc2)N2CCCCC[C@@H](C2=O)N(C)C(=O)CN(C)C1=O [PP0615] | B (a compound having 3 or more and less than 10 is denoted as B) | 216 | B (a compound having 3 or more and less than 10 is denoted as B)
CC[C@H](C)[C@@H]1NC(=O)[C@H](CC(C)C)N(C)C(=O)C[C@@H](C(=O)N(C)C)N(C)C(=O)[C@H](C2CCCC2)N(C)C(=O)C2(CCCC2)NC(=O)[C@@H]2CCCN2C(=O)[C@H](CCc2ccc(C(F)(F)F)c(Cl)c2)NC(=O)CN(C)C(=O)[C@H](Cc2ccc(C)cc2)N2CC/C=C(/C)C[C@@H](C2=O)N(C)C(=O)CN(C)C1=O [PP0616] | B (a compound having 3 or more and less than 10 is denoted as B) | 73.8 | B (a compound having 3 or more and less than 10 is denoted as B)
CC[C@H](C)[C@@H]1NC(=O)[C@@H](CC(C)C)N(C)C(=O)C[C@@H](C(=O)N(C)C)N(C)C(=O)[C@@H](C2CCCC2)N(C)C(=O)C2(CCCC2)NC(=O)[C@@H]2CCCN2C(=O)[C@H](CCc2ccc(C(F)(F)F)c(Cl)c2)NC(=O)CN(C)C(=O)[C@@H](Cc2ccc(C)cc2)N2CC/C=C\CCN(CC2=O)C(=O)CN(C)C1=O [PP0618] | C (A compound having a KD ratio of 0.1 or more and less than 3 is denoted as C) | 79.1 | C (A compound having a KD ratio of 0.1 or more and less than 3 is denoted as C)
CC[C@H](C)[C@@H]1NC(=O)[C@H](CC(C)C)N(C)C(=O)C[C@@H](C(=O)N(C)C)N(C)C(=O)[C@H](C2CCCC2)N(C)C(=O)C2(CCCC2)NC(=O)[C@@H]2CCCN2C(=O)[C@H](CCc2ccc(C(F)(F)F)c(Cl)c2)NC(=O)CN(C)C(=O)[C@H](Cc2ccc(C(F)(F)F)cc2)N2CC/C=C\COC[C@@H](C2=O)N(C)C(=O)CN(C)C1=O [PP0622] | B (a compound having 3 or more and less than 10 is denoted as B) | 330 | B (a compound having 3 or more and less than 10 is denoted as B)
CC[C@H](C)[C@@H]1NC(=O)[C@H](CC(C)C)N(C)C(=O)C[C@@H](C(=O)N(C)C)N(C)C(=O)[C@H](C2CCCC2)N(C)C(=O)C2(CCCC2)NC(=O)[C@@H]2CCCN2C(=O)[C@H](CCc2ccc(C(F)(F)F)c(Cl)c2)NC(=O)CN(C)C(=O)[C@H](Cc2ccc(C)cc2)N2CC=CCOC[C@@H](C2=O)N(C)C(=O)CN(C)C1=O [PP0627] | C (A compound having a KD ratio of 0.1 or more and less than 3 is denoted as C) | 98.3 | C (A compound having a KD ratio of 0.1 or more and less than 3 is denoted as C)
CCO[C@@H]1C[C@H]2C(=O)NC3(CCC3)C(=O)N(C)[C@@H](C3CCCC3)C(=O)N(CC)[C@H](C(=O)N(C)C)CC(=O)N(C)[C@@H](CC)C(=O)N[C@@H]([C@@H](C)CC)C(=O)N(C)CC(=O)N(C)[C@H]3CCCCCN(C3=O)[C@@H](Cc3ccc(C(F)(F)F)cc3)C(=O)N(C)CC(=O)N[C@@H](CCc3cc(F)c(C(F)(F)F)c(F)c3)C(=O)N2C1 [PP0633] | B (a compound having 3 or more and less than 10 is denoted as B) | 116 | B (a compound having 3 or more and less than 10 is denoted as B)
CCO[C@@H]1C[C@H]2C(=O)NC3(CCC3)C(=O)N(C)[C@@H](C3CCCC3)C(=O)N(CCC3CCC3)[C@H](C(=O)N(C)C)CC(=O)N(C)[C@@H](CC)C(=O)N[C@@H]([C@@H](C)CC)C(=O)N(C)CC(=O)N(C)[C@H]3CCCCCN(C3=O)[C@@H](Cc3ccc(C(F)(F)F)cc3)C(=O)N(C)CC(=O)N[C@@H](CCc3cc(F)c(C(F)(F)F)c(F)c3)C(=O)N2C1 [PP0635] | B (a compound having 3 or more and less than 10 is denoted as B) | 85.6 | B (a compound having 3 or more and less than 10 is denoted as B)
CCO[C@@H]1C[C@H]2C(=O)NC3(CCC3)C(=O)N(C)[C@@H](C3CCCC3)C(=O)N(CCC3CCCC3)[C@H](C(=O)N(C)C)CC(=O)N(C)[C@@H](CC)C(=O)N[C@@H]([C@@H](C)CC)C(=O)N(C)CC(=O)N(C)[C@H]3CCCCCN(C3=O)[C@@H](Cc3ccc(C(F)(F)F)cc3)C(=O)N(C)CC(=O)N[C@@H](CCc3cc(F)c(C(F)(F)F)c(F)c3)C(=O)N2C1 [PP0636] | A (a compound having 10 or more and less than 20 is denoted as A) | 729 | A (a compound having 10 or more and less than 20 is denoted as A)
